Measured values: PubChem BioAssay AID1259407 (Chemical Carcinogenesis Research Information System (CCRIS), 2018)
The source made the active and inactive calls. The rule behind the calls is not given here.

Tested on: CCRIS mutagenicity, Ames/micronucleus/aberration tests
Assay: CCRIS mutagenicity studies

Measured: mutagenic call

CC(C)Oc1ccc(Nc2ccccc2)cc1
inactive: End Point: IN VITRO CHROMOSOMAL ABERRATIONS, Test System: CHINESE HAMSTER LUNG CELLS (CHL), Metabolic Activation: RAT, LIVER, S-9, KC-400 inactive; negative; authors describe results as inconclusive | End Point: IN VITRO CHROMOSOMAL ABERRATIONS, Test System: CHINESE HAMSTER OVARY CELLS (CHO), Metabolic Activation: NONE inactive; negative | End Point: IN VITRO CHROMOSOMAL ABERRATIONS, Test System: CHINESE HAMSTER OVARY CELLS (CHO), Metabolic Activation: RAT, LIVER, S-9, AROCLOR 1254 inactive; negative | End Point: IN VITRO CHROMOSOMAL ABERRATIONS, Test System: CHO-LB CELLS, Metabolic Activation: NONE inactive; negative | End Point: IN VITRO CHROMOSOMAL ABERRATIONS, Test System: CHO-LB CELLS, Metabolic Activation: RAT, LIVER, S-9, AROCLOR 1254 inactive; negative | Test System: AMES SALMONELLA TYPHIMURIUM, Strain/Indicator: TA97, Metabolic Activation: HAMSTER, LIVER, S-9, AROCLOR 1254 (10 OR 30%), Method: PREINCUBATION inactive; negative | Test System: AMES SALMONELLA TYPHIMURIUM, Strain/Indicator: TA97, Metabolic Activation: NONE, Method: PREINCUBATION inactive; negative | Test System: AMES SALMONELLA TYPHIMURIUM, Strain/Indicator: TA97, Metabolic Activation: RAT, LIVER, S-9, AROCLOR 1254 (10 OR 30%), Method: PREINCUBATION inactive; negative | Test System: AMES SALMONELLA TYPHIMURIUM, Strain/Indicator: TA98, Metabolic Activation: HAMSTER, LIVER, S-9, AROCLOR 1254 (10 OR 30%), Method: PREINCUBATION inactive; negative | Test System: AMES SALMONELLA TYPHIMURIUM, Strain/Indicator: TA98, Metabolic Activation: NONE, Method: PREINCUBATION inactive; negative | Test System: AMES SALMONELLA TYPHIMURIUM, Strain/Indicator: TA98, Metabolic Activation: RAT, LIVER, S-9, AROCLOR 1254 (10 OR 30%), Method: PREINCUBATION inactive; negative | Test System: AMES SALMONELLA TYPHIMURIUM, Strain/Indicator: TA100, Metabolic Activation: HAMSTER, LIVER, S-9, AROCLOR 1254 (10 OR 30%), Method: PREINCUBATION inactive; negative | Test System: AMES SALMONELLA TYPHIMURIUM, Strain/Indicator: TA100, Metabolic Activation: NONE, Method: PREINCUBATION inactive; negative | Test System: AMES SALMONELLA TYPHIMURIUM, Strain/Indicator: TA100, Metabolic Activation: RAT, LIVER, S-9, AROCLOR 1254 (10 OR 30%), Method: PREINCUBATION inactive; negative | Test System: AMES SALMONELLA TYPHIMURIUM, Strain/Indicator: TA1535, Metabolic Activation: HAMSTER, LIVER, S-9, AROCLOR 1254 (10 OR 30%), Method: PREINCUBATION inactive; negative | Test System: AMES SALMONELLA TYPHIMURIUM, Strain/Indicator: TA1535, Metabolic Activation: NONE, Method: PREINCUBATION inactive; negative | Test System: AMES SALMONELLA TYPHIMURIUM, Strain/Indicator: TA1535, Metabolic Activation: RAT, LIVER, S-9, AROCLOR 1254 (10 OR 30%), Method: PREINCUBATION inactive; negative
